Laboratory results: patent US12377104B1, “Methods for treating a fatty liver disease” (Madrigal Pharmaceuticals, Inc., priority 2024, dated 2025)

Assay: MAESTRO-NASH: metabolic factors (heart rate, body weight, blood pressure) at week 52
Assay type: in vivo, human
Conditions: for Body weight, LS mean % CFB / Body weight, LS mean % CFB difference from PBO / DBP, LS mean % CFB / DBP, LS mean % CFB difference from PBO / Glucose, LS mean % CFB / Glucose, LS mean % CFB difference from PBO / HOMA-IR, LS mean % CFB / HOMA-IR, LS mean % CFB difference from PBO / HbA1c, LS mean % CFB / HbA1c, LS mean % CFB difference from PBO / Heart rate (electrocardiogram), LS mean % CFB / Heart rate (electrocardiogram), LS mean % CFB difference from PBO / Insulin, LS mean % CFB / Insulin, LS mean % CFB difference from PBO / SBP, LS mean % CFB / SBP, LS mean % CFB difference from PBO: week 52

CC(C)c1cc(Oc2c(Cl)cc(-n3nc(C#N)c(=O)[nH]c3=O)cc2Cl)n[nH]c1=O [Resmetirom, 2-(3,5-dichloro-4-((5-isopropyl-6-oxo-1,6-dihydropyridazin-3-yl)oxy)phenyl)-3,5-dioxo-2,3,4,5-tetrahydro-1,2,4-triazine-6-carbonitrile]
Body weight, LS mean % CFB (80 mg): −1.2%
Body weight, LS mean % CFB difference from PBO (80 mg): 0.35%
DBP, LS mean % CFB (80 mg): −1.6%
DBP, LS mean % CFB difference from PBO (80 mg): −1.5%
Glucose, LS mean % CFB (80 mg): 0.72%
Glucose, LS mean % CFB difference from PBO (80 mg): 2.9%
HOMA-IR, LS mean % CFB (80 mg): 9.1%
HOMA-IR, LS mean % CFB difference from PBO (80 mg): −5.3%
HbA1c, LS mean % CFB (80 mg): 1.7%
HbA1c, LS mean % CFB difference from PBO (80 mg): 0.19%
Heart rate (electrocardiogram), LS mean % CFB (80 mg): −1.7%
Heart rate (electrocardiogram), LS mean % CFB difference from PBO (80 mg): −1.5%
Insulin, LS mean % CFB (80 mg): 2.8%
Insulin, LS mean % CFB difference from PBO (80 mg): 2.3%
SBP, LS mean % CFB (80 mg): −1.9%
SBP, LS mean % CFB difference from PBO (80 mg): 2.7%
Body weight, LS mean % CFB (100 mg): −1.8%
Body weight, LS mean % CFB difference from PBO (100 mg): −0.88%
DBP, LS mean % CFB (100 mg): −2.0%
DBP, LS mean % CFB difference from PBO (100 mg): −1.9%
Glucose, LS mean % CFB (100 mg): −3.4%
Glucose, LS mean % CFB difference from PBO (100 mg): 5.6%
HOMA-IR, LS mean % CFB (100 mg): 3.4%
HOMA-IR, LS mean % CFB difference from PBO (100 mg): 11.0%
HbA1c, LS mean % CFB (100 mg): 1.5%
HbA1c, LS mean % CFB difference from PBO (100 mg): 0.05%
Heart rate (electrocardiogram), LS mean % CFB (100 mg): 2.6%
Heart rate (electrocardiogram), LS mean % CFB difference from PBO (100 mg): −2.4%
Insulin, LS mean % CFB (100 mg): 3.3%
Insulin, LS mean % CFB difference from PBO (100 mg): 1.8%
SBP, LS mean % CFB (100 mg): 2.1%
SBP, LS mean % CFB difference from PBO (100 mg): 2.9%
blood pressure (in vivo): slightly reduced
effect on heart rate or body weight (in vivo): no effect on heart rate or body weight
